This note sets out measurements from US9539252B2, “Piperazine-substituted benzothiophene derivatives as antipsychotic agents” (OTSUKA PHARMACEUTICAL CO., LTD., priority 2011, dated 2017).

The structures appear in SMILES notation.

One series in a line: physchem. The conditions noted are these: oil or lipid, thermodynamic from solid.
A short description of series [1]: Solubility in oil (sesame oil, benzyl benzoate), visual observation. The conditions noted are these: oil or lipid, thermodynamic from solid.
Method: (§1) Each of the Example compounds was examined for the solubility in oil (sesame oil, benzyl benzoate).
(§2) For the specific gravity of an oil, the following values were applied. • sesame oil (specific gravity: 0.914-0.921) • benzyl benzoate (specific gravity: 1.123) • (Method)
(§3) Example compound is measured in a microtube and an oil (sesame oil, or, benzyl benzoate) in an amount to make the concentration 10 mg/0.1 ml is added. After stirring, the solubility is evaluated by visual observation. When the compound is not dissolved, the mixture is heated, and the solubility is evaluated after cooling.

Method for physchem: as §1, §2, §3

Compound `O=C(Cc1ccccc1)OCN1C(=O)CCc2ccc(OCCCCN3CCN(c4cccc5sccc45)CC3)cc21` [Example 25, phenylacetic acid 7-[4-(4-benzo[b]thiophen-4-ylpiperazin-1-yl)butoxy]-2-oxo-3,4-dihydro-2H-quinolin-1-ylmethyl ester] came in with a solubility in “physchem” above 100 mg/mL. As for `O=C(Cc1ccccc1)OCn1c(=O)ccc2ccc(OCCCCN3CCN(c4cccc5sccc45)CC3)cc21` [Example 26, phenylacetic acid 7-[4-(4-benzo[b]thiophen-4-ylpiperazin-1-yl)butoxy]-2-oxo-2H-quinolin-1-ylmethyl ester], the solubility in the series “physchem” is above 100 mg/mL.

In the case of `CCCCCCCCCCNC(=O)OCN1C(=O)CC(C)(C)c2ccc(OCCCCN3CCN(c4cccc5sccc45)CC3)cc21` [Example 158, N-decylcarbamic acid 7-[4-(4-benzo[b]thiophen-4-ylpiperazin-1-yl)-butoxy]-4,4-dimethyl-2-oxo-3,4-dihydro-2H-quinolin-1-ylmethyl ester], the solubility in series [1] (benzyl benzoate) and in series [1] (sesame oil) was above 100 mg/mL in each case.

For `COC(=O)OCn1c(=O)ccc2ccc(OCCCCN3CCN(c4cccc5sccc45)CC3)cc21` [Example 163, carbonic acid 7-[4-(4-benzo[b]thiophen-4-ylpiperazin-1-yl)butoxy]-2-oxo-2H-quinolin-1-ylmethyl ester methyl ester], the solubility in series [1] (benzyl benzoate) was above 100 mg/mL.

Compound `CCCOC(=O)OCn1c(=O)ccc2ccc(OCCCCN3CCN(c4cccc5sccc45)CC3)cc21` [Example 165, carbonic acid 7-[4-(4-benzo[b]thiophen-4-ylpiperazin-1-yl)butoxy]-2-oxo-2H-quinolin-1-ylmethyl ester propyl ester] displayed a solubility in series [1] (benzyl benzoate) above 100 mg/mL. With `CCCCOC(=O)OCn1c(=O)ccc2ccc(OCCCCN3CCN(c4cccc5sccc45)CC3)cc21` [Example 168, carbonic acid 7-[4-(4-benzo[b]thiophen-4-ylpiperazin-1-yl)butoxy]-2-oxo-2H-quinolin-1-ylmethyl ester butyl ester], in series [1] (benzyl benzoate), the solubility was above 100 mg/mL. Consider `CC(C)COC(=O)OCn1c(=O)ccc2ccc(OCCCCN3CCN(c4cccc5sccc45)CC3)cc21` [Example 170, carbonic acid 7-[4-(4-benzo[b]thiophen-4-ylpiperazin-1-yl)butoxy]-2-oxo-2H-quinolin-1-ylmethyl ester isobutyl ester], for which the solubility in series [1] (benzyl benzoate) is above 100 mg/mL. Take `CCCCCCOC(=O)OCn1c(=O)ccc2ccc(OCCCCN3CCN(c4cccc5sccc45)CC3)cc21` [Example 175, carbonic acid 7-[4-(4-benzo[b]thiophen-4-ylpiperazin-1-yl)butoxy]-2-oxo-2H-quinolin-1-ylmethyl ester hexyl ester]: the solubility in series [1] (benzyl benzoate) is above 100 mg/mL.

In the case of `CCCCCCCCCOC(=O)OCn1c(=O)ccc2ccc(OCCCCN3CCN(c4cccc5sccc45)CC3)cc21` [Example 177, carbonic acid 7-[4-(4-benzo[b]thiophen-4-ylpiperazin-1-yl)butoxy]-2-oxo-2H-quinolin-1-ylmethyl ester nonyl ester], the solubility in series [1] (benzyl benzoate) and in series [1] (sesame oil) was above 100 mg/mL throughout. Turning to `CCCCCCCCCCCCCCOC(=O)OCn1c(=O)ccc2ccc(OCCCCN3CCN(c4cccc5sccc45)CC3)cc21` [Example 179, carbonic acid 7-[4-(4-benzo[b]thiophen-4-ylpiperazin-1-yl)butoxy]-2-oxo-2H-quinolin-1-ylmethyl ester tetradecyl ester], the solubility in series [1] (benzyl benzoate) and in series [1] (sesame oil) was above 100 mg/mL throughout. For the compound `CCCCCCCCCCCCCCCCOC(=O)OCn1c(=O)ccc2ccc(OCCCCN3CCN(c4cccc5sccc45)CC3)cc21` [Example 180, carbonic acid 7-[4-(4-benzo[b]thiophen-4-ylpiperazin-1-yl)butoxy]-2-oxo-2H-quinolin-1-ylmethyl ester hexadecyl ester], the solubility in series [1] (benzyl benzoate) and in series [1] (sesame oil) was above 100 mg/mL in each case. In series [1] (benzyl benzoate), `CCCCCCCCCCCC(=O)OCOc1ccc2ccc(OCCCCN3CCN(c4cccc5sccc45)CC3)cc2n1` [Example 371, 7-[4-(4-benzo[b]thiophen-4-yl-piperazin-1-yl)-butoxy]-quinolin-2-yloxymethyl dodecanoate] displayed a solubility above 100 mg/mL.

As for `O=C(OCOc1ccc2ccc(OCCCCN3CCN(c4cccc5sccc45)CC3)cc2n1)OC1CCCCC1` [Example 372, 7-[4-(4-benzo[b]thiophen-4-yl-piperazin-1-yl)-butoxy]-quinolin-2-yloxymethyl cyclohexyl carbonate], the solubility in series [1] (benzyl benzoate) is above 100 mg/mL. For `CCCCCCOC(=O)OCOc1ccc2ccc(OCCCCN3CCN(c4cccc5sccc45)CC3)cc2n1` [Example 373, 7-[4-(4-benzo[b]thiophen-4-yl-piperazin-1-yl)-butoxy]-quinolin-2-yloxymethylhexyl carbonate], the solubility in series [1] (benzyl benzoate) and in series [1] (sesame oil) was above 100 mg/mL each time. In the case of `CCCCCCCCCCCC(=O)Oc1ccc2ccc(OCCCCN3CCN(c4cccc5sccc45)CC3)cc2n1` [Example 379, 7-[4-(4-benzo[b]thiophen-4-yl-piperazin-1-yl)-butoxy]-quinolin-2-yl dodecanoate], the solubility in series [1] (benzyl benzoate) and in series [1] (sesame oil) was above 100 mg/mL each time. As to `O=C(Oc1ccc2ccc(OCCCCN3CCN(c4cccc5sccc45)CC3)cc2n1)C1CCCCC1` [Example 380, 7-[4-(4-benzo[b]thiophen-4-yl-piperazin-1-yl)-butoxy]-quinolin-2-yl cyclohexanecarboxylate], the solubility in series [1] (benzyl benzoate) and in series [1] (sesame oil) was above 100 mg/mL throughout. Regarding `CCCCCCOC(=O)Oc1ccc2ccc(OCCCCN3CCN(c4cccc5sccc45)CC3)cc2n1` [Example 381, 7-[4-(4-benzo[b]thiophen-4-yl-piperazin-1-yl)-butoxy]-quinolin-2-yl hexyl carbonate], the solubility in series [1] (benzyl benzoate) and in series [1] (sesame oil) was above 100 mg/mL in each case. `CCN(CC)C(=O)Oc1ccc2ccc(OCCCCN3CCN(c4cccc5sccc45)CC3)cc2n1` [Example 382, 7-[4-(4-benzo[b]thiophen-4-yl-piperazin-1-yl)-butoxy]-quinolin-2-yl diethylcarbamate] came in with a solubility in series [1] (benzyl benzoate) above 100 mg/mL. For `CCCCCCCCOC(=O)OCn1c(=O)ccc2ccc(OCCCCN3CCN(c4cccc5sccc45)CC3)cc21` [Example 384, (7-(4-(4-(benzo[b]thiophen-4-yl)piperazin-1-yl)butoxy)-2-oxoquinolin-1(2H)-yl)methyl octyl carbonate], the solubility in series [1] (benzyl benzoate) and in series [1] (sesame oil) was above 100 mg/mL in each case.

By solubility is commonly meant the concentration that dissolves in the medium under given conditions.
